# Assays:
# S. aureus (ATCC 29213) = test: Zone of inhibition screen, 96 well agar array format; assay type: cell-based; design: scale not given here
# How it was run: (§1)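 Antibacterial testing on a 96-well agar array; each compound screened separately.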
# [1] = tested on: S. epidermidis (ATCC 12228); test: as above; assay type: cell-based; design: scale not given here
# How it was run: as §1
# E. faecium ATCC 49624 = test: MIC determination in BHI media, OD600; assay type: cell-based; conditions: BHI + 0.1% casamino acids, 18 hours at 37° C., ≧90% OD600 inhibition
# Method: (§2) Logarithmically growing cells were diluted to approximately 5×10^5 CFU/ml and subjected to test compounds solubilized and serially diluted in DMSO. […] After 18 hours at 37° C., the OD600 was determined by reading the ninety-six well microtiter plates on a microplate reader. For a given concentration, an MIC determination was made if: […]
# S aureus ATCC 29213 = test: MIC determination in BHI media, OD600; assay type: cell-based; conditions: BHI + 0.1% casamino acids, 18 hours at 37° C., ≧90% OD600 inhibition
# Method: as §2
# S. Aureus ATCC 33591 = test: MIC determination in BHI media, OD600; assay type: cell-based; conditions: BHI + 0.1% casamino acids, 18 hours at 37° C., ≧90% OD600 inhibition
# Method: as §2
# E. faceium (ATCC 49624) = test: Zone of inhibition screen, 96 well agar array format;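 note: score 3 means fourfold and score 4 sixteenfold the reference zone size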; assay type: cell-based, E. faecium
# Method: The antibacterial activity of each of the compounds against the bacterial strains E. faceium (ATCC 49624), S. epidermidis (ATCC 12228), S. aureus (ATCC 29213), E. faecalis (CL 4877) and E. faecalis (ATCC 292121) was tested. Each of the compounds was screened in a 96 will agar array format.
# E. faecalis (CL 4877) = test: as above; assay type: cell-based; design: scale not given here
# How it was run: as §1
# [2] = zone of inhibition relative to 1 mg/ml stock solution of p-chlorobiphenylvancomycin
# [3] = zone of inhibition relative to 1 mg/ml p-chlorobiphenylvancomycin
smiles,measurement,setting,value
C[C@H]1O[C@H](O[C@H]2[C@H](Oc3c4cc5cc3Oc3ccc(cc3Cl)[C@@H](O)[C@@H](NC(=O)[C@@H](N)Cc3c[nH]c6ccccc36)C(=O)N[C@@H](CC(N)=O)C(=O)N[C@H]5C(=O)N[C@H]3C(=O)N[C@H](C(=O)N[C@@H](C(=O)O)c5cc(O)cc(O)c5-c5cc3ccc5O)[C@H](O)c3ccc(c(Cl)c3)O4)O[C@H](CO)[C@@H](O)[C@@H]2O)C[C@@](C)(NCc2ccc(-c3ccc(Cl)cc3)cc2)[C@H]1O [Compound 12],"zone score, S. aureus ATCC 29213",S. aureus (ATCC 29213); [2],2
same,"zone score, S. epidermidis ATCC 12228",[1]; [2],2
same,MIC E. faecium ATCC 49624,E. faecium ATCC 49624,0.39 µg/mL
same,MIC S. aureus ATCC 29213,S aureus ATCC 29213,0.78 µg/mL
same,MIC S. aureus ATCC 33591,S. Aureus ATCC 33591,0.78 µg/mL
CC1OC(OC2C(Oc3c4cc5cc3Oc3ccc(cc3Cl)C(O)C3NC(=O)C(NC(=O)C5NC(=O)C(CC(N)=O)NC(=O)C(NC(=O)CC(O)C[N+](C)(C)C)C(O)c5ccc(c(Cl)c5)O4)c4ccc(O)c(c4)-c4c(O)cc(O)cc4C(C(=O)O)NC3=O)OC(CO)C(O)C2O)CC(C)(NCc2ccc(-c3ccc(Cl)cc3)cc2)C1O (centres unmarked) [Compound 149],"zone score, E. faecium ATCC 49624",E. faceium (ATCC 49624); [2],2
same,"zone score, E. faecalis CL 4877",E. faecalis (CL 4877); [2],2
CC1OC(OC2C(Oc3c4cc5cc3Oc3ccc(cc3Cl)C(O)C3NC(=O)C(NC(=O)C5NC(=O)C(CC(N)=O)NC(=O)C(NC(=O)CCN)C(O)c5ccc(c(Cl)c5)O4)c4ccc(O)c(c4)-c4c(O)cc(O)cc4C(C(=O)O)NC3=O)OC(CO)C(O)C2O)CC(C)(NCc2ccc(-c3ccc(Cl)cc3)cc2)C1O (centres unmarked) [Compound 47],"zone score, E. faecium ATCC 49624",E. faceium (ATCC 49624); [2],2
same,"zone score, E. faecalis CL 4877",E. faecalis (CL 4877); [2],2
CC1OC(OC2C(Oc3c4cc5cc3Oc3ccc(cc3Cl)C(O)C3NC(=O)C(NC(=O)C5NC(=O)C(CC(N)=O)NC(=O)C(NC(=O)C(N)CCCC[N+](C)(C)C)C(O)c5ccc(c(Cl)c5)O4)c4ccc(O)c(c4)-c4c(O)cc(O)cc4C(C(=O)O)NC3=O)OC(CO)C(O)C2O)CC(C)(NCc2ccc(-c3ccc(Cl)cc3)cc2)C1O.[Cl-] (centres unmarked) [Compound 80],"zone score, E. faecium ATCC 49624",E. faceium (ATCC 49624); [2],2
same,"zone score, S. aureus ATCC 29213",S. aureus (ATCC 29213); [2],2
CC1OC(OC2C(Oc3c4cc5cc3Oc3ccc(cc3Cl)C(O)C3NC(=O)C(NC(=O)C5NC(=O)C(CC(N)=O)NC(=O)C(NC(=O)CNC(=O)CNC(=O)CN)C(O)c5ccc(c(Cl)c5)O4)c4ccc(O)c(c4)-c4c(O)cc(O)cc4C(C(=O)O)NC3=O)OC(CO)C(O)C2O)CC(C)(NCc2ccc(-c3ccc(Cl)cc3)cc2)C1O (centres unmarked) [Compound 67],"zone score, S. aureus ATCC 29213",S. aureus (ATCC 29213); [2],2
same,"zone score, S. epidermidis ATCC 12228",[1]; [2],2
same,MIC E. faecium ATCC 49624,E. faecium ATCC 49624,0.78 µg/mL
same,MIC S. aureus ATCC 29213,S aureus ATCC 29213,0.78 µg/mL
same,MIC S. aureus ATCC 33591,S. Aureus ATCC 33591,0.78 µg/mL
C[C@H]1O[C@H](O[C@H]2[C@H](Oc3c4cc5cc3Oc3ccc(cc3Cl)[C@@H](O)[C@@H](NC(=O)[C@@H](N)CCCNC(N)=O)C(=O)N[C@@H](CC(N)=O)C(=O)N[C@H]5C(=O)N[C@H]3C(=O)N[C@H](C(=O)N[C@@H](C(=O)O)c5cc(O)cc(O)c5-c5cc3ccc5O)[C@H](O)c3ccc(c(Cl)c3)O4)O[C@H](CO)[C@@H](O)[C@@H]2O)C[C@@](C)(NCc2ccc(-c3ccc(Cl)cc3)cc2)[C@H]1O [Compound 5],"zone score, E. faecium ATCC 49624",E. faceium (ATCC 49624); [2],2
same,"zone score, E. faecalis CL 4877",E. faecalis (CL 4877); [2],2
CC1OC(OC2C(Oc3c4cc5cc3Oc3ccc(cc3Cl)C(O)C3NC(=O)C(NC(=O)C5NC(=O)C(CC(N)=O)NC(=O)C(NC(=O)C(N)CCCNC(=N)N)C(O)c5ccc(c(Cl)c5)O4)c4ccc(O)c(c4)-c4c(O)cc(O)cc4C(C(=O)O)NC3=O)OC(CO)C(O)C2O)CC(C)(NCc2ccc(-c3ccc(Cl)cc3)cc2)C1O (centres unmarked) [Compound 217],"zone score, E. faecium ATCC 49624",E. faceium (ATCC 49624); [3],2
same,"zone score, E. faecalis CL 4877",E. faecalis (CL 4877); [3],2
CC(O)C(N)C(=O)NC1C(=O)NC(CC(N)=O)C(=O)NC2C(=O)NC3C(=O)NC(C(=O)NC(C(=O)O)c4cc(O)cc(O)c4-c4cc3ccc4O)C(O)c3ccc(c(Cl)c3)Oc3cc2cc(c3OC2OC(CO)C(O)C(O)C2OC2CC(C)(NCc3ccc(-c4ccc(Cl)cc4)cc3)C(O)C(C)O2)Oc2ccc(cc2Cl)C1O (centres unmarked) [Compound 43],"zone score, E. faecium ATCC 49624",E. faceium (ATCC 49624); [2],2
same,"zone score, E. faecalis CL 4877",E. faecalis (CL 4877); [2],2
CSCC(N)C(=O)NC1C(=O)NC(CC(N)=O)C(=O)NC2C(=O)NC3C(=O)NC(C(=O)NC(C(=O)O)c4cc(O)cc(O)c4-c4cc3ccc4O)C(O)c3ccc(c(Cl)c3)Oc3cc2cc(c3OC2OC(CO)C(O)C(O)C2OC2CC(C)(NCc3ccc(-c4ccc(Cl)cc4)cc3)C(O)C(C)O2)Oc2ccc(cc2Cl)C1O (centres unmarked) [Compound 50],"zone score, E. faecium ATCC 49624",E. faceium (ATCC 49624); [2],2
same,"zone score, E. faecalis CL 4877",E. faecalis (CL 4877); [2],2
CC1OC(OC2C(Oc3c4cc5cc3Oc3ccc(cc3Cl)C(O)C3NC(=O)C(NC(=O)C5NC(=O)C(CC(N)=O)NC(=O)C(NC(=O)C(N)Cc5cccs5)C(O)c5ccc(c(Cl)c5)O4)c4ccc(O)c(c4)-c4c(O)cc(O)cc4C(C(=O)O)NC3=O)OC(CO)C(O)C2O)CC(C)(NCc2ccc(-c3ccc(Cl)cc3)cc2)C1O (centres unmarked) [Compound 10],"zone score, E. faecium ATCC 49624",E. faceium (ATCC 49624); [2],2
same,"zone score, S. aureus ATCC 29213",S. aureus (ATCC 29213); [2],2
CC(N)C(=O)NC1C(=O)NC(CC(N)=O)C(=O)NC2C(=O)NC3C(=O)NC(C(=O)NC(C(=O)O)c4cc(O)cc(O)c4-c4cc3ccc4O)C(O)c3ccc(c(Cl)c3)Oc3cc2cc(c3OC2OC(CO)C(O)C(O)C2OC2CC(C)(NCc3ccc(-c4ccc(Cl)cc4)cc3)C(O)C(C)O2)Oc2ccc(cc2Cl)C1O (centres unmarked) [Compound 220],"zone score, E. faecium ATCC 49624",E. faceium (ATCC 49624); [3],2
CC1OC(OC2C(Oc3c4cc5cc3Oc3ccc(cc3Cl)C(O)C3NC(=O)C(NC(=O)C5NC(=O)C(CC(N)=O)NC(=O)C(NC(=O)CCS(=O)(=O)c5ccccc5)C(O)c5ccc(c(Cl)c5)O4)c4ccc(O)c(c4)-c4c(O)cc(O)cc4C(C(=O)O)NC3=O)OC(CO)C(O)C2O)CC(C)(NCc2ccc(-c3ccc(Cl)cc3)cc2)C1O (centres unmarked) [Compound 246],"zone score, E. faecium ATCC 49624",E. faceium (ATCC 49624); [3],2
CNC(COCc1ccccc1)C(=O)NC1C(=O)NC(CC(N)=O)C(=O)NC2C(=O)NC3C(=O)NC(C(=O)NC(C(=O)O)c4cc(O)cc(O)c4-c4cc3ccc4O)C(O)c3ccc(c(Cl)c3)Oc3cc2cc(c3OC2OC(CO)C(O)C(O)C2OC2CC(C)(NCc3ccc(-c4ccc(Cl)cc4)cc3)C(O)C(C)O2)Oc2ccc(cc2Cl)C1O (centres unmarked) [Compound 331],MIC E. faecium ATCC 49624,E. faecium ATCC 49624,0.39 µg/mL
same,MIC S. aureus ATCC 29213,S aureus ATCC 29213,0.78 µg/mL
same,MIC S. aureus ATCC 33591,S. Aureus ATCC 33591,0.78 µg/mL
CC1OC(OC2C(Oc3c4cc5cc3Oc3ccc(cc3Cl)C(O)C3NC(=O)C(NC(=O)C5NC(=O)C(CC(N)=O)NC(=O)C(NC(=O)C(N)Cc5c[nH]cn5)C(O)c5ccc(c(Cl)c5)O4)c4ccc(O)c(c4)-c4c(O)cc(O)cc4C(C(=O)O)NC3=O)OC(CO)C(O)C2O)CC(C)(NCc2ccc(-c3ccc(Cl)cc3)cc2)C1O (centres unmarked) [Compound 555],MIC E. faecium ATCC 49624,E. faecium ATCC 49624,0.39 µg/mL
same,MIC S. aureus ATCC 29213,S aureus ATCC 29213,0.78 µg/mL
same,MIC S. aureus ATCC 33591,S. Aureus ATCC 33591,0.39 µg/mL
COCCOCC(=O)NC1C(=O)NC(CC(N)=O)C(=O)NC2C(=O)NC3C(=O)NC(C(=O)NC(C(=O)O)c4cc(O)cc(O)c4-c4cc3ccc4O)C(O)c3ccc(c(Cl)c3)Oc3cc2cc(c3OC2OC(CO)C(O)C(O)C2OC2CC(C)(NCc3ccc(-c4ccc(Cl)cc4)cc3)C(O)C(C)O2)Oc2ccc(cc2Cl)C1O (centres unmarked) [Compound 100],"zone score, S. aureus ATCC 29213",S. aureus (ATCC 29213); [2],2
same,MIC E. faecium ATCC 49624,E. faecium ATCC 49624,0.78 µg/mL
same,MIC S. aureus ATCC 29213,S aureus ATCC 29213,0.25 µg/mL
same,MIC S. aureus ATCC 33591,S. Aureus ATCC 33591,0.78 µg/mL
CC1OC(OC2C(Oc3c4cc5cc3Oc3ccc(cc3Cl)C(O)C(NC(=O)C(F)(F)C(F)(F)C(F)(F)F)C(=O)NC(CC(N)=O)C(=O)NC5C(=O)NC3C(=O)NC(C(=O)NC(C(=O)O)c5cc(O)cc(O)c5-c5cc3ccc5O)C(O)c3ccc(c(Cl)c3)O4)OC(CO)C(O)C2O)CC(C)(NCc2ccc(-c3ccc(Cl)cc3)cc2)C1O (centres unmarked) [Compound 290],"zone score, E. faecalis CL 4877",E. faecalis (CL 4877); [3],2
same,"zone score, S. aureus ATCC 29213",S. aureus (ATCC 29213); [3],2
same,"zone score, S. epidermidis ATCC 12228",[1]; [3],2
CC(O)C(N)C(=O)NC1C(=O)NC(CC(N)=O)C(=O)NC2C(=O)NC3C(=O)NC(C(=O)NC(C(=O)O)c4cc(O)cc(O)c4-c4cc3ccc4O)C(O)c3ccc(c(Cl)c3)Oc3cc2cc(c3OC2OC(CO)C(O)C(O)C2OC2CC(C)(NCc3ccc(-c4ccc(Cl)cc4)cc3)C(O)C(C)O2)Oc2ccc(cc2Cl)C1O (centres unmarked) [Compound 323],"zone score, E. faecalis CL 4877",E. faecalis (CL 4877); [3],2
same,"zone score, S. aureus ATCC 29213",S. aureus (ATCC 29213); [3],2
same,"zone score, S. epidermidis ATCC 12228",[1]; [3],2
CC(=O)N1CCCC1C(=O)NC1C(=O)NC(CC(N)=O)C(=O)NC2C(=O)NC3C(=O)NC(C(=O)NC(C(=O)O)c4cc(O)cc(O)c4-c4cc3ccc4O)C(O)c3ccc(c(Cl)c3)Oc3cc2cc(c3OC2OC(CO)C(O)C(O)C2OC2CC(C)(NCc3ccc(-c4ccc(Cl)cc4)cc3)C(O)C(C)O2)Oc2ccc(cc2Cl)C1O (mixture of isomers) [Compound 176],"zone score, E. faecalis CL 4877",E. faecalis (CL 4877); [2],2
same,"zone score, S. aureus ATCC 29213",S. aureus (ATCC 29213); [2],2
same,"zone score, S. epidermidis ATCC 12228",[1]; [2],2
